Measurements as given in patent US20260097047A1, “Small molecule inhibitors of the ribosome biogenesis factor NVL2” (Board of Regents, The University of Texas System, priority 2023, published 2026).
Read-outs that look alike come from different tables or passages of the source.

System: HCT116 cells
Assay: Cell viability assay (CellTiter-Glo, 72 hours) in HCT116 human colorectal cancer cells
Type: cell-based
Protocol: Cell culture: The HCT116 cell line was obtained from ATCC and cultured in Dulbecco's Modified Eagle's Medium (DMEM)-high glucose (Sigma Aldrich #D5796) supplemented with 10% fetal bovine serum (FBS) (Sigma-Aldrich #F2442) and 2 mM L-Glutamine (Sigma Aldrich #G7513). Cells were cultured at 37° C. in 5% CO2. The identity of all cell lines was confirmed by short tandem repeat (STR) analysis and confirmed to be mycoplasma-free using a PCR based assay (Genatlantis).
Cell viability assay: In 96-well assay plates (Corning #2903), 2,000 cells were plated per well in 100 μL of medium and allowed to adhere overnight. The next day, compounds suspended in DMSO were dispensed to the assayed wells using a D300e Digital Dispenser (Tecan). All wells were normalized to 0.5% DMSO. 72 hours after incubation at 37° C. in 5% CO2, cell viability was assayed using an ATP-based luminescent viability assay, CellTiter-Glo (Promega #G8462). Substrate was mixed 1:1 with phosphate-buffered saline (PBS) supplemented with 1% Triton X-100, and 40 μL of this mixture was added to the assay wells. Plates were shaken on a microplate shaker for 10 minutes at room temperature. Luminescence (CellTiter-Glo) was recorded using a Synergy 2 microplate reader (BioTek). In Prism 9 software (GraphPad), ten-point dose response curves were plotted with baseline-correction to the vehicle control well, and IC50 values were calculated by curve fitting using asymmetric (five parameter), least squares fit.

[1] = Table 6, HCT116, 72 hours, read-out: Activity
[2] = Table 8, analogs of scaffold drawing 43 defined by R^2, R^3, X/Y, W, read-out: Activity (IC50 class, cell viability assay)
[3] = Table 7, cell viability assay, CellTiter-Glo, 72 hours, scaffold drawing 42 with R^2, R^3, X/Y, Z, read-out: Activity

Question: For `CC#CCN1C(=O)c2ccccc2Sc2cc(NC3CC4(CC(=O)C4)C3)ccc21`, which IC50 [1] is on record?
Answer: Its IC50 is less than 500 nM.

Question: How did the IC50 [1] turn out when `CC#CCN1C(=O)c2ccccc2Sc2cc(NCC3(C)COC3)cnc21` was run?
Answer: The IC50 was less than 500 nM.

Question: How did the IC50 [1] turn out when `CC#CCN1C(=O)c2ccccc2Sc2cc(NC34CC(C3)C4)ccc21` was run?
Answer: The IC50 was less than 500 nM.

Question: With `CC#CCN1C(=O)c2ccccc2Sc2cc(NC34CC(C3)C4)cnc21` as the molecule, how does the IC50 [1] read?
Answer: The IC50 was less than 500 nM.

Question: How did the IC50 [1] turn out when `CC#CCN1C(=O)c2ccccc2Cc2cc(NC3COC3)ccc21` was run?
Answer: The IC50 was less than 500 nM.

Question: With `CC#CCN1C(=O)c2ccccc2Cc2cc(NC3CCCOC3)ccc21` (stereo not shown) as the molecule, how does the IC50 [1] read?
Answer: Its IC50 is less than 500 nM.

Question: Which IC50 [1] does the source give for `CC#CCN1C(=O)c2ccccc2Sc2cc(NC3CCCOC3)cnc21` (stereo not shown) here?
Answer: Its IC50 is less than 500 nM.

Question: For `CC#CCN1C(=O)c2ccccc2Sc2cc(NC(=O)C3CC4(COC4)C3)cnc21`, which IC50 [2] is on record?
Answer: The IC50 was less than 500 nM.

Question: `CC#CCN1C(=O)c2ccccc2Sc2cc(NC(=O)C34CC(C#N)(C3)C4)cnc21` was tested. Which IC50 [2] did it give?
Answer: The IC50 was less than 500 nM.

Question: How did the IC50 [2] turn out when `CC#CCN1C(=O)c2ccccc2Sc2cc(NC(=O)C34CC(O)(C3)C4)cnc21` was run?
Answer: Its IC50 is less than 500 nM.

Question: For `CC#CCN1C(=O)c2cc(F)ccc2Sc2cc(NC(=O)C34CC(O)(C3)C4)cnc21`, which IC50 [2] is on record?
Answer: The IC50 was less than 500 nM.

Question: Which IC50 [2] does the source give for `CC#CCN1C(=O)c2ccccc2Sc2cc(NC(=O)c3ccc4oc(=O)n(C)c4c3)cnc21` here?
Answer: The IC50 was less than 500 nM.

Question: How did the IC50 [2] turn out when `CC#CCN1C(=O)c2ccccc2Sc2cc(NC(=O)C34CC(C)(C3)C4)cnc21` was run?
Answer: The IC50 was less than 500 nM.

Question: With `CC#CCN1C(=O)c2cc(F)ccc2Sc2cc(NC(=O)C34CC(OC)(C3)C4)cnc21` as the molecule, how does the IC50 [2] read?
Answer: Its IC50 is less than 500 nM.

Question: With `CC#CCN1C(=O)c2ccccc2Sc2cc(NC(=O)C34CC(OC)(C3)C4)cnc21` as the molecule, how does the IC50 [2] read?
Answer: Its IC50 is less than 500 nM.

Question: For `CC#CCN1C(=O)c2cc(F)ccc2Sc2cc(NC(=O)C3CC4(CC(O)C4)C3)cnc21` (stereo not shown), which IC50 [2] is on record?
Answer: The IC50 was less than 500 nM.

Question: How did the IC50 [2] turn out when `CC#CCN1C(=O)c2ccccc2Sc2cc(NC(=O)C3CC4(CC(=NO)C4)C3)cnc21` (stereo not shown) was run?
Answer: The IC50 was less than 500 nM.

Question: With `CC#CCN1C(=O)c2ccc(F)cc2Sc2cc(NC(=O)C3CC4(CC(=NO)C4)C3)cnc21` (stereo not shown) as the molecule, how does the IC50 [2] read?
Answer: The IC50 was less than 500 nM.

Question: With `CC#CCN1C(=O)c2cc(F)ccc2Sc2cc(NC(=O)C3CC4(CC(=NO)C4)C3)cnc21` (stereo not shown) as the molecule, how does the IC50 [2] read?
Answer: The IC50 was less than 500 nM.

Question: `CC#CCN1C(=O)c2ccccc2Sc2cc(NC(=O)C3CC4(CC(=NOC)C4)C3)cnc21` (stereo not shown) was tested. Which IC50 [2] did it give?
Answer: Its IC50 is less than 500 nM.

Question: How did the IC50 [2] turn out when `CC#CCN1C(=O)c2cc(F)ccc2Sc2cc(NC(=O)C3CC4(CC(=O)C4)C3)ccc21` was run?
Answer: Its IC50 is less than 500 nM.

Question: `CC#CCN1C(=O)c2ccccc2Sc2cc(NC(=O)C3CC4(CC(=O)C4)C3)cnc21` was tested. Which IC50 [2] did it give?
Answer: The IC50 was less than 500 nM.

Question: Which IC50 [2] does the source give for `CC#CCN1C(=O)c2ccccc2Sc2cc(NC(=O)c3ccc4scnc4c3)ccc21` here?
Answer: The IC50 was less than 500 nM.

Question: How did the IC50 [2] turn out when `CC#CCN1C(=O)c2ccccc2Sc2cc(NC(=O)C34CC(C3)C4)cnc21` was run?
Answer: Its IC50 is less than 500 nM.

Question: Which IC50 [2] does the source give for `CC#CCN1C(=O)c2ccccc2Sc2cc(NC(=O)C3CC4(CCC4)C3)ccc21` here?
Answer: The IC50 was less than 500 nM.

Question: `CC#CCN1C(=O)c2cc(F)ccc2Sc2cc(NC(=O)C3CCCO3)ccc21` (stereo not shown) was tested. Which IC50 [2] did it give?
Answer: The IC50 was less than 500 nM.

Question: How did the IC50 [2] turn out when `O=C(Nc1ccc2c(c1)Sc1ccccc1C(=O)N2CC#CC1CC1)C1CC2(COC2)C1` was run?
Answer: Its IC50 is less than 500 nM.

Question: `O=C(Nc1ccc2c(c1)Sc1ccc(F)cc1C(=O)N2CC#CC1CC1)C1CC2(COC2)C1` was tested. Which IC50 [2] did it give?
Answer: The IC50 was less than 500 nM.

Question: Which IC50 [2] does the source give for `O=C1c2ccccc2Sc2cc(NC(=O)C34CC(F)(C3)C4)cnc2N1CC#CC1CC1` here?
Answer: Its IC50 is less than 500 nM.

Question: Which IC50 [2] does the source give for `CC12CC(C(=O)Nc3cnc4c(c3)Sc3ccccc3C(=O)N4CC#CC3CC3)(C1)C2` here?
Answer: Its IC50 is less than 500 nM.

Question: How did the IC50 [2] turn out when `O=C(Nc1ccc2c(c1)Sc1ccc(F)cc1C(=O)N2CC#CC1CC1)C1CC2(CC(O)C2)C1` (stereo not shown) was run?
Answer: Its IC50 is less than 500 nM.

Question: For `CON=C1CC2(C1)CC(C(=O)Nc1ccc3c(c1)Sc1ccc(F)cc1C(=O)N3CC#CC1CC1)C2` (stereo not shown), which IC50 [2] is on record?
Answer: Its IC50 is less than 500 nM.

Question: For `O=C1c2ccccc2Sc2cc(NC(=O)C34CC(C3)C4)cnc2N1CC#CC1CC1`, which IC50 [2] is on record?
Answer: The IC50 was less than 500 nM.

Question: How did the IC50 [3] turn out when `C=CCN1C(=O)c2ccc(F)cc2Sc2cc(NC(=O)c3ccc4scnc4c3)ccc21` was run?
Answer: The IC50 was less than 500 nM.

Question: `CC=CCN1C(=O)c2ccccc2Sc2cc(NC(=O)c3ccc4scnc4c3)ccc21` was tested. Which IC50 [3] did it give?
Answer: The IC50 was less than 500 nM.

Question: For `C#CCOCCN1C(=O)c2ccc(F)cc2Sc2cc(NC(=O)c3ccc4scnc4c3)ccc21`, which IC50 [3] is on record?
Answer: The IC50 was less than 500 nM.

Question: `C#CCOCCN1C(=O)c2ccccc2Sc2cc(NC(=O)c3ccc4scnc4c3)ccc21` was tested. Which IC50 [3] did it give?
Answer: Its IC50 is less than 500 nM.

Question: Which IC50 [3] does the source give for `COCCN1C(=O)c2ccccc2Sc2cc(NC(=O)c3ccc4oc(C)nc4c3)ccc21` here?
Answer: The IC50 was less than 500 nM.

Question: Which IC50 [3] does the source give for `COCCN1C(=O)c2ccccc2Sc2cc(NC(=O)c3ccc4oc(=O)[nH]c4c3)ccc21` here?
Answer: Its IC50 is 1000 to 5000 nM.

Question: How did the IC50 [3] turn out when `COCCN1C(=O)c2ccccc2Sc2cc(NC(=O)c3ccc4oc(=O)n(C)c4c3)ccc21` was run?
Answer: The IC50 was 500 to 1000 nM.

Question: Which IC50 [3] does the source give for `COCCN1C(=O)c2ccccc2Sc2cc(NC(=O)c3ccc4ocnc4c3)ccc21` here?
Answer: The IC50 was less than 500 nM.

Question: With `COCCN1C(=O)c2ccccc2Sc2cc(NC(=O)c3ccc4ncoc4c3)ccc21` as the molecule, how does the IC50 [3] read?
Answer: Its IC50 is 1000 to 5000 nM.

Question: For `COCCN1C(=O)c2ccccc2Sc2cc(NC(=O)c3ccc4nccn4c3)ccc21`, which IC50 [3] is on record?
Answer: Its IC50 is 1000 to 5000 nM.

Question: With `COCCN1C(=O)c2ccccc2Sc2cc(NC(=O)c3ccn4ccnc4c3)ccc21` as the molecule, how does the IC50 [3] read?
Answer: Its IC50 is 1000 to 5000 nM.

Question: Which IC50 [3] does the source give for `COCCN1C(=O)c2ccccc2Sc2cc(NC(=O)C3CCOCC3)ccc21` here?
Answer: The IC50 was 1000 to 5000 nM.

Question: `C=CCCCOCCN1C(=O)c2ccccc2Sc2cc(NC(=O)c3ccoc3)ccc21` was tested. Which IC50 [3] did it give?
Answer: The IC50 was less than 500 nM.
